Where two headings read alike, the source gives them in different places.
Legend:
[1] = target: murine TRPM7 (Mus musculus, UniProt Q923J1); settings: for dose dependence of inhibition of TRPM7-mediated fura-2 quench by Mn2+: serial dilutions, 15 min pre-incubation
Experimental: Wild type (non-transfected) human embryonic kidney (WT-HEK293) cells and tetracycline-inducible HEK293 cells, stably transfected with a FLAG-murine TRPM7/pcDNA4/TO construct (TRPM7-HEK293), were cultured in a humidified incubator, at 37° C. and 5% CO2, in DMEM supplemented with 10% FBS and 2 mM L-glutamine. Wild type HEK293 culture medium was supplemented with 100 U/mL penicillin and 0.10 mg/mL streptomycin. TRPM7-HEK293 culture medium was supplemented with 5 μg/mL blasticidin and 0.4 mg/mL zeocin.
TRPM7 channel conductance was monitored using a FlexStation 3 scanning fluorometer (Molecular Devices, Sunnyvale, Calif.) to monitor the Ca^2+-independent (360 nm excitation/510 nm emission) fura-2 quench by Mn^2+ in TRPM7 overexpressing HEK293 cells. The FlexStation 3 measured the fluorescent signal intensity in relative fluorescence units (RFU), at 1.5 s intervals for 60 s using a beam diameter of 1.5-2.0 mm. Following baseline measurements, Mn^2+ was added extracellularly and changes in cytosolic [Mn^2+] were monitored as the loss of relative fluorescence caused by fura-2 quenching. TRPM7-HEK293 cells (30,000, 60,000 or 120,000 cells/well) were plated in poly-L-lysine coated, black clear-bottom 96-well plates (Greiner Bio-One, Monroe, N.C.). Subsequent TRPM7-expression was induced 2-3 h post plating by the addition of 1 μg/mL tetracycline. The culture medium was completely removed at 16-18 h post induction and replaced with the following fura-2 loading-buffer: KRH buffer supplemented with 2 μM fura-2-AM, with or without 2 mM probenecid, and with or without 0.1-0.3% pluronic F-127. Following variable incubation times (30, 45 and 60 min at 25 or 37° C.) the loading buffer was removed and replaced with assay buffer (KRH). The plates were then transferred to a room temperature (25° C.) or pre-warmed (37° C.) FlexStation which also contained a clear V-bottom 96-well compound plate (Greiner Bio-One) with vehicle or appropriate test substance solutions diluted with KRH. Cells were initially incubated for 15 min with the appropriate test substance solutions. Just prior to the addition of 1 or 10 mM MnCl2 the baseline fluorescence was recorded for 20 s. The Ca^2+-independent, TRPM7-mediated fura-2 quench by Mn^2+ was then recorded for 40 s.
Fluorescence data was collected in SoftMax Pro (Molecular Devices) and processed in Microsoft Excel 2007. Replicate fluorescence traces (time vs. intensity) were averaged and the Z′-factors were calculated. Mean, standard deviation (sdev), and Z′-factors at each time point were plotted using IGOR PRO (Wavemetrics). […] These values were background-corrected (WT-HEK293 signal subtracted) and normalized to vehicle controls.
TRPM7-HEK293 cells and HEK293 cells were plated at 60,000 cells/well. Cells were incubated at 37° C. for 60 min with KRH containing 2 mM probenecid, 0.1% pluronic F-127, and 2 μM fura-2-AM. After a wash step, the cells were pre-incubated with LaCl3 (serial diluted 2:1 from 7.0 mM to 9.6 μM) or 2-APB (serial diluted 2:1 from 500-0.69 μM) at 37° C. for 15 min during baseline measurements.

[2] = target: T1, TRPM7 (Mus musculus, UniProt Q923J1); assay: Whole-cell patch-clamp of TRPM7 currents in HEK293-TRPM7; format: cell-based; set-up: FLAG; expressed in transfected cells; host or cells: tetracycline-inducible HEK293 cells (pcDNA4/TO vector); settings: for IC50: read-out: IC50, inhibition of TRPM7 currents
T1 sequence (Q923J1 whole entry): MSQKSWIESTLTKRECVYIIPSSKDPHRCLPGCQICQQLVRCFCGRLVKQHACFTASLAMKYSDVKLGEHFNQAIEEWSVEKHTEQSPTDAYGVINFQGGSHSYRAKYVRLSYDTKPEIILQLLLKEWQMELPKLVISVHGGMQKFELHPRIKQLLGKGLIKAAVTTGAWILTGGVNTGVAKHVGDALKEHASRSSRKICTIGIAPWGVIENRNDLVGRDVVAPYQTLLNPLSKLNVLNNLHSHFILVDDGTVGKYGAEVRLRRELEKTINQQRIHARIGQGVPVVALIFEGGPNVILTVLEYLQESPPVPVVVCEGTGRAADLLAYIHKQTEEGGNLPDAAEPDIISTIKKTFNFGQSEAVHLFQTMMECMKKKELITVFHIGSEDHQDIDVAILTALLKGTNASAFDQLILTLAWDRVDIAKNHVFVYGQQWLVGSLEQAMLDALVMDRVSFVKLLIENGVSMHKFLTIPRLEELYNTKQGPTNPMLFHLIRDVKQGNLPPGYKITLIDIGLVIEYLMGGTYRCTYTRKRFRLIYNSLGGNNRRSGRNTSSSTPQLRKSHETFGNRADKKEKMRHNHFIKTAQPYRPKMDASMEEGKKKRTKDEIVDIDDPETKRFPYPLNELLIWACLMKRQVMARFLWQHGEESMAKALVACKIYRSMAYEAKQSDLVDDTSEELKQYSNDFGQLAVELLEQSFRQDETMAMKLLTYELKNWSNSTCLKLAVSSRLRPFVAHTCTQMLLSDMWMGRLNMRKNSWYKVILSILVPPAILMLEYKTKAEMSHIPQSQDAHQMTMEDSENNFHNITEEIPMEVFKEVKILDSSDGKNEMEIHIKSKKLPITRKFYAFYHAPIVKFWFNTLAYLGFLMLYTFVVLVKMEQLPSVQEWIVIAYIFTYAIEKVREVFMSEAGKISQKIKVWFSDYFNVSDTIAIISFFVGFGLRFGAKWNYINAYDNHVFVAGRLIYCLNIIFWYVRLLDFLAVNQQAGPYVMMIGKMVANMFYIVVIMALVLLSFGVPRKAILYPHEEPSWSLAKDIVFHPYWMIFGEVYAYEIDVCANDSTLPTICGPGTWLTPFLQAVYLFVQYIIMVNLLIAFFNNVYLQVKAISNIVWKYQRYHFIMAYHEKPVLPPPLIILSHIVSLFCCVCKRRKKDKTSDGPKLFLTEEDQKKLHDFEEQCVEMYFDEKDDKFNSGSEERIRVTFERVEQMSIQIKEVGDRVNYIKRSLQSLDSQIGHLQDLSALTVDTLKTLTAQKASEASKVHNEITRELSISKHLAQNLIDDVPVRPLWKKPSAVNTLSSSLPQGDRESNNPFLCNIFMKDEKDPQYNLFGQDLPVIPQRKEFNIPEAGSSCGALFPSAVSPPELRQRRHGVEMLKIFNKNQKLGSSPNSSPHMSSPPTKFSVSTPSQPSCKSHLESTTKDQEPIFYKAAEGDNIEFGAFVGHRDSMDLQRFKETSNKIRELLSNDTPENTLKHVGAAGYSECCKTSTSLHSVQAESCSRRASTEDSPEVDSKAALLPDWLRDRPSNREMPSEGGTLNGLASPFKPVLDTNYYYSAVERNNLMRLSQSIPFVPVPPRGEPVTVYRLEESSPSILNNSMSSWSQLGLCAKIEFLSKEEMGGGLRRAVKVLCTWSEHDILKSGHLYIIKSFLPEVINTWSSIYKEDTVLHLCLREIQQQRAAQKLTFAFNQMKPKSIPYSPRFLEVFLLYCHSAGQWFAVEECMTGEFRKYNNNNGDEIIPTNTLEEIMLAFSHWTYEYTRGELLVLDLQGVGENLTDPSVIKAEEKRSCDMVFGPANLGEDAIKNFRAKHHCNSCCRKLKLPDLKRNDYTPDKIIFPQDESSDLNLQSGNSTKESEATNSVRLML
Experimental: Error bars represent S.E.M. Corresponding I/V relationships are representative currents in response to voltage ramps obtained at 500 s. […] Currents were extracted at +80 mV at 500 s, normalized to the maximal current amplitude before application (200 s), plotted against waixenicin A concentration, and approximated by dose-response fit function (n=8-10). […] Same analysis as in FIG. 9A. Error bars represent S.E.M.
Patch-clamp experiments were performed in the whole-cell configuration at 24° C. All data were acquired with PatchMaster (HEKA) software controlling an EPC-9 amplifier (HEKA, Lambrecht, Germany) and analyzed using FitMaster (HEKA) and IGOR PRO (Wavemetrics, USA). Voltage ramps of 50 ms spanning from −100 to +100 mV were delivered from a holding potential of 0 mV at a rate of 0.5 Hz. Voltages were corrected for liquid junction potentials (10 mV). Currents were filtered at 2.9 kHz and digitized at 100 μs intervals. Current amplitudes were extracted at +80 mV and −80 mV for analysis and display.
To activate TRPM7 currents, intracellular Mg^2+ and Mg-ATP were washed out by perfusion with Mg^2+- and ATP-free internal solution. Whole-cell currents were elicited by voltage ramps from −100 to +100 mV delivered at 0.5 Hz and current amplitudes were extracted at +80 mV and plotted versus time of the experiment. […] The corresponding current-voltage (I/V) relationships are illustrated by representative ramp currents extracted at 500 s. […] Outward and inward TRPM7 currents responded in a similar manner to waixenicin A treatment (FIG. 10A), resulting in the same IC50.
To better mimic physiologic conditions, we clamped the intracellular solution to 700 μM free internal Mg^2+ and only omitted Mg-ATP to achieve TRPM7 activation. […] The corresponding I/V relationships are illustrated by representative ramp currents.

[3] = target: T1, TRPM7; set-up: host or cells: TRPM7-HEK293 and CHOK1-TRPM7 cells as reported earlier; settings: cited from earlier work
[4] = read-out: IC50, inhibition of the TRPM7-mediated fura-2 quench by Mn2+, TRPM7-HEK293, 15 min pre-incubation at 37° C., 10 mM MnCl2, endpoint 10 s after MnCl2 addition

Chain of murine TRPM7 (Q923J1 whole entry): as above

| SMILES | IC50 ([1]; read-out: IC50 of the maximal slope of the Mn2+ quench, HEK293-TRPM7, 15 min incubation before 10 mM MnCl2) | dose dependence of inhibition of TRPM7-mediated fura-2 quench by Mn2+ [1] | IC50 ([2]; 0 [Mg2+]i, outward currents at +80 mV at 500 s) | inhibition of TRPM7 currents ([2]; 10 μM for 300 s, +80 mV, Mg2+- and ATP-free internal solution) | TRPM7 current density after application ([2]; 10 μM for 300 s, +80 mV, Mg2+- and ATP-free internal solution, plateau about 130 pA/pF before) | block of TRPM7 current ([2]; 10 μM, 700 μM free internal Mg2+, Mg-ATP omitted) | IC50 ([2]; 700 μM free internal Mg2+) | reversibility of inhibitory effect on washout ([2]; washout for another 300 s) | block of channel conductance ([3]; 10 μM) | block of inward TRPM7-mediated currents ([3]; 10 mM) | effect on Mn2+-induced fluorescence quench ([1]; FIG. 8A, 10 mM MnCl2, HEK293-TRPM7) | IC50 [1, 4] | stability of stock solution in cold storage (-20° C., 50 mM in MeOH) | stability of dried film, vacuum packed aliquots (stored at -20° C.) | inhibition of TRPM7 mediated inward current ([3]; 100 μM, divalent-free extracellular solutions, TRPM7-HEK293) | IC50 ([3]; whole-cell recordings, TRPM7-HEK293 and CHOK1-TRPM7 cells, read-out: IC50, TRPM7 mediated outward current) |
| --- | --- | --- | --- | --- | --- | --- | --- | --- | --- | --- | --- | --- | --- | --- | --- | --- |
| C=C1CC/C=C(\C)CC[C@@H]2C([C@H](C/C=C(\C)COC(C)=O)OC(C)=O)=CO[C@H](OC(C)=O)[C@@H]12 [waixenicin A] | 12 µM | dose-dependent manner | 7 µM | approximately 50% | 67 pA/pF | completely blocked the current | 0.016 µM | failed to reverse its inhibitory effect | – | – | – | – | – | – | – | – |
| [Cl][La]([Cl])[Cl] [La^3+, LaCl3] | – | dose dependent inhibition | – | – | – | – | – | – | ineffective | almost completely blocked | reduced Mn^2+-induced fluorescence quench | 760 µM | – | – | – | – |
| NCCOB(c1ccccc1)c1ccccc1 [2-APB, 2-aminoethoxydiphenyl borate] | – | dose dependent inhibition | – | – | – | – | – | – | – | – | – | 56 µM | apparent compound degradation over the course of one week | only remained fully potent when used within a two month period | 77% | 160 ± 14 µM |

Reference: patent US20110230368A1, “High Throughput Assays for TRPM7” (The Queen's Medical Center, priority 2009, published 2011)
